Reference: paper PMC12016938, “A small molecule PKCε inhibitor reduces hyperalgesia induced by paclitaxel or opioid withdrawal” (JCI Insight, 2025)
Where “and” joins values, the source holds several entries; their conditions need not be identical. Identical values can stand only once. Like-named read-outs stand apart in the source and are kept apart here.

How the values were obtained:
[1] = Pharmacokinetic studies in rats (plasma and brain); type: in vivo; settings: for concentration at 15 min / concentration at 30 min / concentration at 1 h / concentration at 4 h / concentration at 6 h / concentration at 8 h / concentration at 2 h / concentration at 24 h / half-life / concentration at 5 min: rat, plasma; for concentration at 15 min / concentration at 30 min / concentration at 1 h / concentration at 4 h / concentration at 6 h / concentration at 8 h / concentration at 2 h / concentration at 24 h / concentration at 5 min: 40 mg/kg; for concentration at 2 h / concentration at 24 h: read-out: Plasma concentration
Protocol: Because binding to plasma protein was approximately 90%, we predicted that the free concentration at each time point was 10 times lower than the measured plasma concentration.
Pharmacokinetic studies in rats. Pharmacokinetics studies were contracted to the Drug Metabolism and Pharmacokinetics Core at Scripps Research. CP612 was dissolved at in 10% Tween-80/90% water and administered at 40 mg/kg/5 mL. Six rats were injected i.v. and 6 were injected i.p. Three rats were used to collect a full plasma time course from 5 minutes to 24 hours after dose. Then, brains were collected from these rats at 24 hours and from 3 additional rats at 2 hours after administration of compound. One rat receiving i.p. administration of CP612 was excluded as it had low/nondetectable levels indicating missed i.p. injection in that rat. Plasma samples were diluted 10-fold in blank plasma. Each brain was disrupted in potassium phosphate buffer (pH 7.4; 9 μL per 1mg tissue) on ice using brief sonication pulses. CP612 was detected with an API Triple Quad 5500 LC-MS/MS (SCIEX) using an MRM(+) method: CP612 (463/282, m/z) with carbamazepine (238/195.1, m/z) as an internal standard.

PKN2 = target: T1, PKN2 (Homo sapiens, UniProt Q16513); assay: scanMax kinome panel, PKN2; type: binding; settings: 200 nM CP612
T1 construct: purchased Eurofins-DiscoverX
T1 sequence (Q16513 whole entry): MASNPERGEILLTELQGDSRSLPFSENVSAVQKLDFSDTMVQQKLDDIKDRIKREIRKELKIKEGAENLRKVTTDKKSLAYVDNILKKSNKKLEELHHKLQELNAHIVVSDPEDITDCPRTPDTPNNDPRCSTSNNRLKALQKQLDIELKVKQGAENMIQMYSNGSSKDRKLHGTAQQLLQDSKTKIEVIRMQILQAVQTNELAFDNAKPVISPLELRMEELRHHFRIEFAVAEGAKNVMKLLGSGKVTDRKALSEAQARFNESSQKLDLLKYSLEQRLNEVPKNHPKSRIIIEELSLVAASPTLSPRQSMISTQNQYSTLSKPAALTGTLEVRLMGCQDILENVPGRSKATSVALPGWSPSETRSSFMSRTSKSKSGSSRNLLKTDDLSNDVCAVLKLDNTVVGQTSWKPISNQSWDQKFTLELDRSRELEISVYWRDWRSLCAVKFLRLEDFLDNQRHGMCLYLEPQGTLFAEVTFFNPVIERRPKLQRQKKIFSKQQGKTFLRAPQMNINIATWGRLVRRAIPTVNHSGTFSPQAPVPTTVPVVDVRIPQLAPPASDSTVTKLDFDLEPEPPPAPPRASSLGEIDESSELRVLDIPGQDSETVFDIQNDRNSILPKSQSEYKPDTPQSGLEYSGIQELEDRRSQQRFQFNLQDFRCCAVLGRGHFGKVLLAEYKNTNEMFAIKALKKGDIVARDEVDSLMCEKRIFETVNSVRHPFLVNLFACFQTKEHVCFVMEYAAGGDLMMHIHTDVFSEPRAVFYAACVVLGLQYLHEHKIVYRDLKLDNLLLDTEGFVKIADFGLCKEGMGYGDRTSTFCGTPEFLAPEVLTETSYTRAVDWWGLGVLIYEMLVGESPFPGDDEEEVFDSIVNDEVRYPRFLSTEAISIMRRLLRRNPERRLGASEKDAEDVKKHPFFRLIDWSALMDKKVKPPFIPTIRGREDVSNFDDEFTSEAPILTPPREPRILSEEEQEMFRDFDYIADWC
Protocol: CP612 was screened for kinome specificity at 200 nM against 468 kinases using the scanMax assay panel from Eurofins-DiscoverX. CP612 inhibited 10 other WT kinases besides PKCε, all to < 10% of control: CLK1 (CDC Like Kinase 1), CLK4, PKN1 (Protein kinase N1), PKN2, PKCδ, PKCη, PKCθ, PRKG2 (Protein Kinase CGMP-Dependent 2), ROCK1, and ROCK2.

Plasma stability = settings: for % Absolute: human plasma (hPL); for half-life: human
Protocol: Plasma stability. To determine in vitro plasma stability, we calculated in vitro plasma half-life. We incubated test substances (0.6 μL) with 60 μL human plasma (BioIVT) in quadruplicate at 37°C.

[2] = test system: paclitaxel-induced hyperalgesia; assay: Paclitaxel-induced hyperalgesia, Randall-Selitto paw pressure test; settings: for Force applied that led to paw withdrawal: one paw
Protocol: We tested if CP612 reverses this hyperalgesia. Male rats received repeated injections of paclitaxel (1 mg/kg, i.p. on days 1, 3, 5, and 7). Twenty-four hours after the last dose of paclitaxel, rats were administered vehicle (2 mL/kg, i.p.) or CP612 (20 mg/kg, i.p.).
Mechanical nociceptive thresholds in rats were quantified by the Randall-Selitto paw pressure test using an Ugo Basile Analgesy-Meter. This device applies a linearly increasing mechanical force to the dorsum or plantar region of the rat hind paw. The mechanical nociceptive threshold is defined as the force in grams at which a rat withdraws its paw. The higher the force to elicit paw withdrawal, the higher the pain threshold (and the lower the sensitivity to pain). For studies testing nociceptive thresholds after the PKCε activator ψεRACK, or after the cancer chemotherapeutic drug paclitaxel, rats were placed into cylindrical acrylic restrainers for 40 minutes before starting each session. The restrainers had lateral ports to allow access to the hind paw, as previously described ([35]), and pain thresholds were measured by applying force to the dorsum of the hind paw. Prior to starting experiments, baseline mechanical nociceptive threshold was obtained as the mean of 2–3 readings on 1 hind paw in each rat.

[3] = ip, i.p. 40 mg/kg, mean all rats
[4] = ip, i.p. 40 mg/kg, individual rat
[5] = ip, i.p. 40 mg/kg, mean of RM Plasma + Brain 24h rats
[6] = iv, i.v. 40 mg/kg, individual rat
[7] = iv, i.v. 40 mg/kg, mean all rats
[8] = iv, i.v. 40 mg/kg, mean of RM Plasma + Brain 24h rats

Which concentration at 15 min [1, 3] does the source give for `N[C@H](CNC(=O)C1(c2ccc(Cl)cc2)CCCC1)c1ccc(C(=O)Nc2ccncc2)cc1` [CP612] here?
Its concentration at 15 min is 21.9 µM.

And the concentration at 30 min [1, 4]?
Its concentration at 30 min is 30.2 µM.

And the concentration at 30 min [1, 3]?
Its concentration at 30 min is 25.4 µM.

What about the concentration at 1 h [1, 4] of the same compound?
The concentration at 1 h was 28.3 µM.

What about the concentration at 1 h [1, 3] of the same compound?
Its concentration at 1 h is 28.3 µM.

What about the concentration at 4 h [1, 4] of the same compound?
The concentration at 4 h was 5.16 µM.

And the concentration at 4 h [1, 3]?
The concentration at 4 h was 5.82 µM.

What about the concentration at 6 h [1, 4] of the same compound?
Its concentration at 6 h is 1.91 µM.

What about the concentration at 6 h [1, 3] of the same compound?
The concentration at 6 h was 1.89 µM.

And the concentration at 8 h [1, 4]?
The concentration at 8 h was 2.29 µM.

And the concentration at 8 h [1, 3]?
The concentration at 8 h was 2.13 µM.

What about the concentration at 2 h [1, 4] of the same compound?
The concentration at 2 h was 14.4 µM.

What about the concentration at 2 h [1, 3] of the same compound?
Its concentration at 2 h is 15 µM.

And the concentration at 2 h ([1]; ip, i.p. 40 mg/kg, mean of Plasma 2h, Brain 2h rats)?
The concentration at 2 h was 15.1 µM.

What about the concentration at 2 h [1, 5] of the same compound?
Its concentration at 2 h is 14.7 µM.

And the concentration at 24 h [1, 4]?
The concentration at 24 h was 0.38 µM.

And the concentration at 24 h [1, 3]?
Its concentration at 24 h is 0.498 µM.

What about the concentration at 24 h [1, 5] of the same compound?
The concentration at 24 h was 0.498 µM.

What about the half-life ([1]; ip, rats, 40 mg/kg i.p.) of the same compound?
Its half-life is 6.8 ± 0.7 h.

What about the concentration at 5 min [1, 6] of the same compound?
Its concentration at 5 min is 80.3 µM.

What about the concentration at 5 min [1, 7] of the same compound?
The concentration at 5 min was 80.3 µM.

What about the concentration at 15 min [1, 6] of the same compound?
The concentration at 15 min was 57 µM.

And the concentration at 15 min [1, 7]?
The concentration at 15 min was 52.6 µM.

What about the concentration at 30 min [1, 7] of the same compound?
Its concentration at 30 min is 28.5 µM.

What about the concentration at 1 h [1, 6] of the same compound?
Its concentration at 1 h is 26.4 µM.

And the concentration at 1 h [1, 7]?
The concentration at 1 h was 24.8 µM.

What about the concentration at 4 h [1, 6] of the same compound?
The concentration at 4 h was 3.97 µM.

What about the concentration at 4 h [1, 7] of the same compound?
The concentration at 4 h was 4.11 µM.

And the concentration at 6 h [1, 6]?
Its concentration at 6 h is 1.68 µM.

And the concentration at 6 h [1, 7]?
The concentration at 6 h was 1.55 µM.

What about the concentration at 8 h [1, 6] of the same compound?
Its concentration at 8 h is 1.42 µM.

What about the concentration at 8 h [1, 7] of the same compound?
Its concentration at 8 h is 1.41 µM.

And the concentration at 2 h [1, 6]?
The concentration at 2 h was 11.3 µM.

What about the concentration at 2 h [1, 7] of the same compound?
Its concentration at 2 h is 13.9 µM.

And the concentration at 2 h ([1]; iv, i.v. 40 mg/kg, mean of Plasma 2h, Brain 2h rats)?
The concentration at 2 h was 16 µM.

And the concentration at 2 h [1, 8]?
Its concentration at 2 h is 11.9 µM.

And the concentration at 24 h [1, 7]?
The concentration at 24 h was 0.192 µM.

And the concentration at 24 h [1, 8]?
The concentration at 24 h was 0.192 µM.

And the half-life ([1]; iv, rats, 40 mg/kg i.v.)?
The half-life was 4 ± 0.6 h.

What about the Brain penetration ([1]; rats, i.p. or i.v. injection) of the same compound?
Its Brain penetration is “brain penetrant”.

And the “scanMax % of control, PKN2” value (PKN2)?
Its value is < 10 % of control.

And the “Plasma stability (in words)” value (Plasma stability; human plasma)?
Its value is “good”.

What about the “% Absolute” value (Plasma stability; time 0 min, individual replicates) of the same compound?
Its value is 98.366% and 71.452% and 77.756%.

What about the “% Absolute” value (Plasma stability; time 15 min, individual replicates) of the same compound?
Its value is 34.724% and 41.198% and 31.011%.

What about the “% Absolute” value (Plasma stability; time 30 min, individual replicates) of the same compound?
The value was 46.894% and 51.340% and 53.939%.

And the “% Absolute” value (Plasma stability; time 60 min, individual replicates)?
The value was 48.950% and 36.305% and 40.476%.

What about the “Plasma stability Cl” value (Plasma stability; human plasma, 37°C) of the same compound?
The value was 0.46 ± 0.04 µL/min.

What about the “Cl (clearance)” value (Plasma stability; human plasma, individual replicates) of the same compound?
Its value is 0.504 and 0.448 and 0.437.

What about the “t1/2 (half life)” value (Plasma stability; human plasma, individual replicates, time axis in min, in min) of the same compound?
Its value is 92.829 and 95.187.

What about the k (Plasma stability; human plasma, slope of Ln Transform vs Time (min), individual replicates) of the same compound?
The k was -0.008 and -0.00747 and -0.007.

What about the half-life (Plasma stability; human plasma, Plasma stability t½ (min), 37°C) of the same compound?
The half-life was 1.5 ± 0.113 h.

What about the half-life (Plasma stability; plasma, t1/2 (half life), Mean, human plasma, mean of replicates, time axis in min) of the same compound?
Its half-life is 1.5 h.

What about the half-life (Plasma stability; plasma, t1/2 (half life), human plasma, individual replicates, time axis in min) of the same compound?
Its half-life is 1.37 h.

What about the “Force applied that led to paw withdrawal” value ([2]; 0min (24 h after last paclitaxel, before CP612)) of the same compound?
Its value is 95 grams and 102.5 grams and 100 grams and 97.5 grams and 101.7 grams.

And the “Force applied that led to paw withdrawal” value ([2]; 15min after CP612 20 mg/kg intraperitoneally, 20 mg/kg)?
Its value is 120 grams and 125 grams and 110 grams and 115 grams and 117.5 grams.

And the “Force applied that led to paw withdrawal” value ([2]; 30min after CP612 20 mg/kg intraperitoneally, 20 mg/kg)?
Its value is 110 grams and 122.5 grams and 117.5 grams and 112.5 grams.

What about the “Force applied that led to paw withdrawal” value ([2]; 60min after CP612 20 mg/kg intraperitoneally, 20 mg/kg) of the same compound?
The value was 111.7 grams and 120 grams and 116.7 grams and 113.3 grams and 121.7 grams.

What about the “Force applied that led to paw withdrawal” value ([2]; 120min after CP612 20 mg/kg intraperitoneally, 20 mg/kg) of the same compound?
Its value is 101.7 grams and 116.7 grams and 111.7 grams and 103.3 grams and 96.7 grams and 115 grams.

What about the “Force applied that led to paw withdrawal” value ([2]; 24h after CP612 20 mg/kg intraperitoneally, 20 mg/kg) of the same compound?
The value was 85 grams and 116.7 grams and 90 grams and 91.7 grams and 96.7 grams.

What about the “Force applied that led to paw withdrawal” value ([2]; baseline (before paclitaxel and CP612)) of the same compound?
Its value is 127.5 grams and 125 grams and 140 grams.

What about the “Effect on paclitaxel-induced hyperalgesia” value ([2]; male rats, CP612 20 mg/kg i.p., 15, 30, 60 and 120 minutes) of the same compound?
Its value is “attenuated”.

What about the “Decrease in paclitaxel-induced hyperalgesia 1 day after CP612” value ([2]; male rats, CP612 20 mg/kg i.p., 24 hours) of the same compound?
Its value is “dissipated”.
